Measured values from PubChem BioAssay AID1745844 (Carcinogenic Potency Database (CPDB), 2022).
Where “and” joins values, the source holds several entries; their conditions need not be identical. Identical values can stand only once. Calls of active or inactive are those of the source. The rule behind the calls is not given here.

Test system: rodent lifetime carcinogenesis bioassay, tumor incidence TD50
Experiment: carcinogenic potency in animals, long-term in vivo studies, CPDB compilation (AID 1745844)

## Nc1ccc(N)c2c1C(=O)c1c(N)ccc(N)c1C2=O
mouse, strain B6C3F1, females, in feed, site: liver, lesion: hepatocellular adenoma, dosed 103 weeks, study length 106 weeks
  TD50: 150 mg/kg/day (inactive)
mouse, strain B6C3F1, females, in feed, site: lung, lesion: alveolar/bronchiolar adenoma + alveolar/bronchiolar carcinoma, dosed 103 weeks, study length 106 weeks
  TD50: 9310 mg/kg/day
mouse, strain B6C3F1, males, in feed, site: any site (literature study), lesion: several types, types named in the paper, dosed 104 weeks, study length 105 weeks
  TD50: 1290 mg/kg/day
mouse, strain B6C3F1, males, in feed, site: liver, lesion: hepatocellular adenoma + hepatocellular carcinoma + neoplastic nodule, dosed 104 weeks, study length 105 weeks
  TD50: 534 mg/kg/day
mouse, strain B6C3F1, males, in feed, site: liver, lesion: hepatocellular adenoma + hepatocellular carcinoma, dosed 104 weeks, study length 105 weeks
  TD50: 534 mg/kg/day
mouse, strain B6C3F1, males, in feed, site: lung, lesion: alveolar/bronchiolar adenoma + alveolar/bronchiolar carcinoma, dosed 104 weeks, study length 105 weeks
  TD50: 701 mg/kg/day
mouse, strain B6C3F1, males, in feed, site: lung, lesion: alveolar/bronchiolar adenoma, dosed 104 weeks, study length 105 weeks
  TD50: 925 mg/kg/day
rat, strain Fischer 344, females, in feed, site: any site (literature study), lesion: several types, types named in the paper, dosed 103 weeks, study length 104 weeks
  TD50: 130 mg/kg/day
rat, strain Fischer 344, females, in feed, site: pancreatic islets, lesion: islet-cell carcinoma, dosed 103 weeks, study length 104 weeks
  TD50: 291 mg/kg/day
rat, strain Fischer 344, females, in feed, site: pituitary gland + pancreatic islets, lesion: carcinoma, NOS + islet-cell carcinoma, dosed 103 weeks, study length 104 weeks
  TD50: 323 mg/kg/day
rat, strain Fischer 344, females, in feed, site: urinary bladder, lesion: leiomyoma, dosed 103 weeks, study length 104 weeks
  TD50: 1540 mg/kg/day
rat, strain Fischer 344, females, in feed, site: urinary bladder, lesion: leiomyosarcoma + leiomyoma + squamous-cell carcinoma + squamous-cell papilloma + transitional-cell carcinoma + transitional-cell p, dosed 103 weeks, study length 104 weeks
  TD50: 131 mg/kg/day
rat, strain Fischer 344, females, in feed, site: urinary bladder, lesion: leiomyosarcoma + leiomyoma, dosed 103 weeks, study length 104 weeks
  TD50: 250 mg/kg/day
rat, strain Fischer 344, females, in feed, site: urinary bladder, lesion: leiomyosarcoma, dosed 103 weeks, study length 104 weeks
  TD50: 294 mg/kg/day
rat, strain Fischer 344, females, in feed, site: urinary bladder, lesion: squamous-cell carcinoma + squamous-cell papilloma, dosed 103 weeks, study length 104 weeks
  TD50: 664 mg/kg/day
rat, strain Fischer 344, females, in feed, site: urinary bladder, lesion: squamous-cell carcinoma, dosed 103 weeks, study length 104 weeks
  TD50: 1580 mg/kg/day
rat, strain Fischer 344, females, in feed, site: urinary bladder, lesion: squamous-cell papilloma, dosed 103 weeks, study length 104 weeks
  TD50: 1020 mg/kg/day
rat, strain Fischer 344, females, in feed, site: urinary bladder, lesion: transitional-cell carcinoma + transitional-cell papilloma, dosed 103 weeks, study length 104 weeks
  TD50: 198 mg/kg/day
rat, strain Fischer 344, females, in feed, site: urinary bladder, lesion: transitional-cell carcinoma, dosed 103 weeks, study length 104 weeks
  TD50: 307 mg/kg/day
rat, strain Fischer 344, females, in feed, site: urinary bladder, lesion: transitional-cell papilloma, dosed 103 weeks, study length 104 weeks
  TD50: 317 mg/kg/day
rat, strain Fischer 344, males, in feed, site: any site (literature study), lesion: several types, types named in the paper, dosed 103 weeks, study length 104 weeks
  TD50: 39.3 mg/kg/day
rat, strain Fischer 344, males, in feed, site: pancreatic islets, lesion: islet-cell adenoma + islet-cell carcinoma, dosed 103 weeks, study length 104 weeks
  TD50: 414 mg/kg/day
rat, strain Fischer 344, males, in feed, site: pancreatic islets, lesion: islet-cell adenoma, dosed 103 weeks, study length 104 weeks
  TD50: 810 mg/kg/day
rat, strain Fischer 344, males, in feed, site: subcutaneous tissue, lesion: sarcoma, NOS, dosed 103 weeks, study length 104 weeks
  TD50: 1830 mg/kg/day
rat, strain Fischer 344, males, in feed, site: testis, lesion: interstitial-cell tumor, dosed 103 weeks, study length 104 weeks
  TD50: 100 mg/kg/day
rat, strain Fischer 344, males, in feed, site: thyroid gland, lesion: c-cell adenoma + c-cell carcinoma, dosed 103 weeks, study length 104 weeks
  TD50: 474 mg/kg/day
rat, strain Fischer 344, males, in feed, site: thyroid gland, lesion: c-cell adenoma, dosed 103 weeks, study length 104 weeks
  TD50: 529 mg/kg/day
rat, strain Fischer 344, males, in feed, site: urinary bladder, lesion: leiomyosarcoma + leiomyoma + squamous-cell carcinoma + squamous-cell papilloma + transitional-cell carcinoma + transitional-cell p, dosed 103 weeks, study length 104 weeks
  TD50: 89.3 mg/kg/day
rat, strain Fischer 344, males, in feed, site: urinary bladder, lesion: leiomyosarcoma + leiomyoma, dosed 103 weeks, study length 104 weeks
  TD50: 129 mg/kg/day
rat, strain Fischer 344, males, in feed, site: urinary bladder, lesion: leiomyosarcoma, dosed 103 weeks, study length 104 weeks
  TD50: 131 mg/kg/day
rat, strain Fischer 344, males, in feed, site: urinary bladder, lesion: squamous-cell carcinoma + squamous-cell papilloma, dosed 103 weeks, study length 104 weeks
  TD50: 803 mg/kg/day
rat, strain Fischer 344, males, in feed, site: urinary bladder, lesion: squamous-cell papilloma, dosed 103 weeks, study length 104 weeks
  TD50: 1260 mg/kg/day
rat, strain Fischer 344, males, in feed, site: urinary bladder, lesion: transitional-cell carcinoma + transitional-cell papilloma, dosed 103 weeks, study length 104 weeks
  TD50: 245 mg/kg/day
rat, strain Fischer 344, males, in feed, site: urinary bladder, lesion: transitional-cell carcinoma, dosed 103 weeks, study length 104 weeks
  TD50: 506 mg/kg/day
rat, strain Fischer 344, males, in feed, site: urinary bladder, lesion: transitional-cell papilloma, dosed 103 weeks, study length 104 weeks
  TD50: 370 mg/kg/day

## c1cc(OCC2CO2)cc(OCC2CO2)c1 (stereo not drawn)
mouse, strain B6C3F1, females, by gavage, site: any site (literature study), lesion: several types, types named in the paper, dosed 103 weeks, study length 105 weeks
  TD50: 32.3 mg/kg/day
mouse, strain B6C3F1, females, by gavage, site: liver, lesion: hepatocellular adenoma + hepatocellular carcinoma + neoplastic nodule, dosed 103 weeks, study length 105 weeks
  TD50: 169 mg/kg/day
mouse, strain B6C3F1, females, by gavage, site: liver, lesion: hepatocellular carcinoma, dosed 103 weeks, study length 105 weeks
  TD50: 221 mg/kg/day
mouse, strain B6C3F1, females, by gavage, site: lung, lesion: alveolar/bronchiolar adenoma + alveolar/bronchiolar carcinoma, dosed 103 weeks, study length 105 weeks
  TD50: 4790 mg/kg/day
mouse, strain B6C3F1, females, by gavage, site: stomach, lesion: papillomatosis + squamous-cell carcinoma + squamous-cell papilloma, dosed 103 weeks, study length 105 weeks
  TD50: 17.9 mg/kg/day
mouse, strain B6C3F1, females, by gavage, site: stomach, lesion: papillomatosis + squamous-cell papilloma, dosed 103 weeks, study length 105 weeks
  TD50: 48.2 mg/kg/day
mouse, strain B6C3F1, females, by gavage, site: stomach, lesion: squamous-cell carcinoma, dosed 103 weeks, study length 105 weeks
  TD50: 36.3 mg/kg/day
mouse, strain B6C3F1, males, by gavage, site: any site (literature study), lesion: several types, types named in the paper, dosed 103 weeks, study length 104 weeks
  TD50: 36.6 mg/kg/day
mouse, strain B6C3F1, males, by gavage, site: liver, lesion: hepatocellular adenoma + hepatocellular carcinoma + neoplastic nodule, dosed 103 weeks, study length 104 weeks
  TD50: 84.7 mg/kg/day
mouse, strain B6C3F1, males, by gavage, site: lung, lesion: alveolar/bronchiolar adenoma + alveolar/bronchiolar carcinoma, dosed 103 weeks, study length 104 weeks
  TD50: 1350 mg/kg/day
mouse, strain B6C3F1, males, by gavage, site: stomach, lesion: papillomatosis + squamous-cell carcinoma + squamous-cell papilloma, dosed 103 weeks, study length 104 weeks
  TD50: 37.8 mg/kg/day
mouse, strain B6C3F1, males, by gavage, site: stomach, lesion: papillomatosis + squamous-cell papilloma, dosed 103 weeks, study length 104 weeks
  TD50: 145 mg/kg/day
mouse, strain B6C3F1, males, by gavage, site: stomach, lesion: squamous-cell carcinoma, dosed 103 weeks, study length 104 weeks
  TD50: 55.5 mg/kg/day
rat, strain Fischer 344, females, by gavage, site: any site (literature study), lesion: several types, types named in the paper, dosed 103 weeks, study length 104 weeks
  TD50: 8.53 mg/kg/day and 16 mg/kg/day
rat, strain Fischer 344, females, by gavage, site: forestomach, lesion: squamous-cell carcinoma + squamous-cell papilloma, dosed 103 weeks, study length 104 weeks
  TD50: 3.53 mg/kg/day
rat, strain Fischer 344, females, by gavage, site: forestomach, lesion: squamous-cell carcinoma, dosed 103 weeks, study length 104 weeks
  TD50: 5.93 mg/kg/day
rat, strain Fischer 344, females, by gavage, site: forestomach, lesion: squamous-cell papilloma, dosed 103 weeks, study length 104 weeks
  TD50: 8.95 mg/kg/day
rat, strain Fischer 344, females, by gavage, site: liver, lesion: hepatocellular adenoma + hepatocellular carcinoma + neoplastic nodule, dosed 103 weeks, study length 104 weeks
  TD50: 174 mg/kg/day
rat, strain Fischer 344, females, by gavage, site: stomach, lesion: squamous-cell carcinoma + squamous-cell papilloma, dosed 103 weeks, study length 104 weeks
  TD50: 4.47 mg/kg/day
rat, strain Fischer 344, females, by gavage, site: stomach, lesion: squamous-cell carcinoma, dosed 103 weeks, study length 104 weeks
  TD50: 5.1 mg/kg/day
rat, strain Fischer 344, females, by gavage, site: stomach, lesion: squamous-cell papilloma, dosed 103 weeks, study length 104 weeks
  TD50: 45.5 mg/kg/day
rat, strain Fischer 344, males, by gavage, site: any site (literature study), lesion: several types, types named in the paper, dosed 98 weeks, study length 104 weeks
  TD50: 2.43 mg/kg/day
rat, strain Fischer 344, males, by gavage, site: any site (literature study), lesion: several types, types named in the paper, dosed 103 weeks, study length 104 weeks
  TD50: 4.61 mg/kg/day
rat, strain Fischer 344, males, by gavage, site: forestomach, lesion: squamous-cell carcinoma + squamous-cell papilloma, dosed 103 weeks, study length 104 weeks
  TD50: 2.33 mg/kg/day
rat, strain Fischer 344, males, by gavage, site: forestomach, lesion: squamous-cell carcinoma, dosed 103 weeks, study length 104 weeks
  TD50: 2.73 mg/kg/day
rat, strain Fischer 344, males, by gavage, site: forestomach, lesion: squamous-cell papilloma, dosed 103 weeks, study length 104 weeks
  TD50: 8.16 mg/kg/day
rat, strain Fischer 344, males, by gavage, site: liver, lesion: hepatocellular adenoma + hepatocellular carcinoma + neoplastic nodule, dosed 98 weeks, study length 104 weeks
  TD50: 114 mg/kg/day
rat, strain Fischer 344, males, by gavage, site: liver, lesion: hepatocellular adenoma + hepatocellular carcinoma + neoplastic nodule, dosed 103 weeks, study length 104 weeks
  TD50: 640 mg/kg/day
rat, strain Fischer 344, males, by gavage, site: pituitary gland, lesion: adenoma, NOS, dosed 98 weeks, study length 104 weeks
  TD50: 12.2 mg/kg/day
rat, strain Fischer 344, males, by gavage, site: stomach, lesion: squamous-cell carcinoma + squamous-cell papilloma, dosed 98 weeks, study length 104 weeks
  TD50: 2.89 mg/kg/day
rat, strain Fischer 344, males, by gavage, site: stomach, lesion: squamous-cell carcinoma, dosed 98 weeks, study length 104 weeks
  TD50: 3.06 mg/kg/day
rat, strain Fischer 344, males, by gavage, site: stomach, lesion: squamous-cell papilloma, dosed 98 weeks, study length 104 weeks
  TD50: 24.7 mg/kg/day
rat, strain Fischer 344, males, by gavage, site: testis, lesion: interstitial-cell tumor, dosed 98 weeks, study length 104 weeks
  TD50: 2.35 mg/kg/day
